From paper PMC4300089, “Structure-Guided Design of Selective Epac1 and Epac2 Agonists” (PLoS Biology, 2015)
“And” between values parts separate entries of the source, which are not always exact repeats. Equal entries are not always repeated.

Experiments:
Epac2^Δ280,K450E = molecular target: T1, Epac2^Δ280,K450E (Mus musculus, UniProt Q9EQZ6, K468E); experiment: Epac activation assay, Epac2 K450E mutant; type: biochemical
T1 construct: made in house
T1 sequence (Q9EQZ6 281-993 isoform Q9EQZ6-3 K450E): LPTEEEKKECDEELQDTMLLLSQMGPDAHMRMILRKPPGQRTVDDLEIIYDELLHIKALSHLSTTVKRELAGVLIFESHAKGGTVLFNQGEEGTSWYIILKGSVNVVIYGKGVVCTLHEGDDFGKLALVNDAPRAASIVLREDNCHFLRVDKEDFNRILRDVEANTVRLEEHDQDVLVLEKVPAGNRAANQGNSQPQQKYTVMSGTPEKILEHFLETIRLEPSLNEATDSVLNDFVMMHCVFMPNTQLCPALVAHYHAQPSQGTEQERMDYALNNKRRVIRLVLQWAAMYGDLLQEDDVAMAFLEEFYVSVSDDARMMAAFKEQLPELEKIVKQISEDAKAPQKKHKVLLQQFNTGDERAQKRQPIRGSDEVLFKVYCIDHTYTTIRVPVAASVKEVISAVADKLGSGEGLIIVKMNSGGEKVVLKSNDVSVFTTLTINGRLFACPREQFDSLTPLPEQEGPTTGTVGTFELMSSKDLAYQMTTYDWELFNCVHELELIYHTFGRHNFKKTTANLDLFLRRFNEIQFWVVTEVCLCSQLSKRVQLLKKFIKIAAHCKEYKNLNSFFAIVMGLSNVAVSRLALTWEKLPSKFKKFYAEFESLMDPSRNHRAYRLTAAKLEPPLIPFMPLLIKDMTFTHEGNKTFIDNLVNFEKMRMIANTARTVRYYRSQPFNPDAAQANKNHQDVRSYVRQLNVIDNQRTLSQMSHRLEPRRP
Description: Murine Epac2 was used as all previous structural studies were performed with it.
The activity of Epac was determined by a fluorescence assay. […] The fluorescence intensity of Rap1B•mGDP is approximately twice that of free mGDP, and thus, nucleotide exchange can be observed as a decay in fluorescence upon the addition of excess unlabeled GDP.

Epac2^fl = molecular target: T2, Epac2^fl (Mus musculus, UniProt Q9EQZ6); details: footnote b, see also ref 11; cited from earlier work
T2 sequence (Q9EQZ6 1-993 isoform Q9EQZ6-3): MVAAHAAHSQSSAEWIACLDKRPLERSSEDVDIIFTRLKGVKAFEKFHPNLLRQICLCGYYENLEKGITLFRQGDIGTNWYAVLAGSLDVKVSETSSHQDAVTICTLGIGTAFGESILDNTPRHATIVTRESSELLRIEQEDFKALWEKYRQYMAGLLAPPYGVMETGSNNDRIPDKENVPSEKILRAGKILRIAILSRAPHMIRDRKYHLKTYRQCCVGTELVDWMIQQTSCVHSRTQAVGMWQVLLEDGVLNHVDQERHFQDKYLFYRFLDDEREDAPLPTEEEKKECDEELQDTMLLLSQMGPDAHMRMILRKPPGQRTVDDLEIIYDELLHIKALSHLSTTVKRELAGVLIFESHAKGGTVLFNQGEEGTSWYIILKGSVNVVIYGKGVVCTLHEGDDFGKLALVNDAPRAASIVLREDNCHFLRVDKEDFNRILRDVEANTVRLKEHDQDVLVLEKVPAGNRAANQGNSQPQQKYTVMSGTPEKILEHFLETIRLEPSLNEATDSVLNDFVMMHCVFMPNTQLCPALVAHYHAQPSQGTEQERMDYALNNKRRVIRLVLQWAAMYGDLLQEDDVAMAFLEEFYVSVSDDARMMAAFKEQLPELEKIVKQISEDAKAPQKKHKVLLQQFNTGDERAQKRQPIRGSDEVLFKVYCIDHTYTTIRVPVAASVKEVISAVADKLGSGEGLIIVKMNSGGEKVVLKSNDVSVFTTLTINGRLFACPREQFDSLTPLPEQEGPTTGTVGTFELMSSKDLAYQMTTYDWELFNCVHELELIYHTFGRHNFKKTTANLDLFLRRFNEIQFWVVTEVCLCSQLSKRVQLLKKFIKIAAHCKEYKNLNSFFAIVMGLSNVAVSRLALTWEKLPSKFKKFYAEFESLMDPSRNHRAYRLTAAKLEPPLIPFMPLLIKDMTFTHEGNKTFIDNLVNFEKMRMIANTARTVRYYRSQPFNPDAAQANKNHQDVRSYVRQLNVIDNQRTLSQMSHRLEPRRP

primary human islets = experiment: Insulin secretion assay in primary human islets; type: cell-based; details: 25 to 100 μM; compared with Forskolin/IBMX
Description: Islets were isolated from two human donor pancreases. Intact islets (n = 20 per well) were seeded on ultra-low attachment 96-well plate. After 3 days of culture, the pancreatic islets were washed two times with 115 mM NaCl, 5 mM KCl, 24 mM NaHCO3, 2.2 mM CaCl2, 1 mM MgCl2, 20 mM HEPES, and 0.2% human serum albumin (incubation buffer) and primed for 1.5 h at 37°C in incubation buffer supplemented with 2 mM glucose (low glucose). Subsequently, the cells were incubated in fresh incubation buffer supplemented with 2 mM glucose for 1 h to measure the basal insulin secretion levels. […] The cell supernatants were collected immediately after incubation with low and high glucose. The insulin concentrations were measured by ELISA (Insulin ELISA Kit, Mercodia). The insulin secretion was expressed as the ratio of insulin concentration at high and low glucose concentrations for each well (insulin secretion index).

Row | SMILES | kobs (Epac2^Δ280,K450E; 0.01 μM compound) [s⁻¹] | kobs (Epac2^Δ280,K450E; 0.05 μM compound) [s⁻¹] | kobs (Epac2^Δ280,K450E; 0.08 μM compound) [s⁻¹] | kobs (Epac2^Δ280,K450E; 0.1 μM compound) | kobs (Epac2^Δ280,K450E; 0.3 μM compound) [s⁻¹] | kobs (Epac2^Δ280,K450E; 0.4 μM compound) [s⁻¹] | kobs (Epac2^Δ280,K450E; 0.5 μM compound) [s⁻¹] | kobs (Epac2^Δ280,K450E; 0.6 μM compound) [s⁻¹] | kobs (Epac2^Δ280,K450E; 0.7 μM compound) [s⁻¹] | kobs (Epac2^Δ280,K450E; 0.8 μM compound) [s⁻¹] | kobs (Epac2^Δ280,K450E; 1 μM compound) [s⁻¹] | kobs (Epac2^Δ280,K450E; 2 μM compound) [s⁻¹] | kobs (Epac2^Δ280,K450E; 3 μM compound) [s⁻¹] | kobs (Epac2^Δ280,K450E; 4 μM compound) [s⁻¹] | kobs (Epac2^Δ280,K450E; 5 μM compound) [s⁻¹] | kobs (Epac2^Δ280,K450E; 6 μM compound) [s⁻¹] | kobs (Epac2^Δ280,K450E; 7 μM compound) [s⁻¹] | kobs (Epac2^Δ280,K450E; 8 μM compound) [s⁻¹] | kobs (Epac2^Δ280,K450E; 10 μM compound) [s⁻¹] | kobs (Epac2^Δ280,K450E; 20 μM compound) [s⁻¹] | further results
1 | Nc1ncnc2c1ncn2C1OC2COP(O)(=S)OC2C1O (stereo not shown) [S-000, Sp-cAMPS] | 4.6e-05 | 6.3e-05 | 7.4e-05 | 8e-05 s⁻¹ and 9.8e-05 s⁻¹ | 0.000139 | 0.000171 | 0.000194 | 0.000231 | 0.000249 | 0.000268 | 0.000297 | 0.000427 | 0.000527 | 0.000575 | 0.000593 | 0.000641 | 0.000636 | 0.00067 | 0.000647 | 0.000817 | kobs (Epac2^Δ280,K450E; 30 μM compound): 0.000851 s⁻¹; kobs (Epac2^Δ280,K450E; 40 μM compound): 0.00083 s⁻¹; kobs (Epac2^Δ280,K450E; 50 μM compound): 0.000833 s⁻¹; kobs (Epac2^Δ280,K450E; 60 μM compound): 0.000819 s⁻¹; kobs (Epac2^Δ280,K450E; 70 μM compound): 0.000826 s⁻¹; kobs (Epac2^Δ280,K450E; 80 μM compound): 0.000827 s⁻¹; kobs (Epac2^Δ280,K450E; 100 μM compound): 0.000823 s⁻¹
2 | Nc1ncnc2c1ncn2[C@@H]1O[C@@H]2COP(=O)(O)O[C@H]2[C@H]1O [cAMP, reference compound] | 3.01e-05 | 4.19e-05 | 5.14e-05 | 5.5e-05 s⁻¹ | 9.73e-05 | 0.000114 | 0.000124 | 0.000146 | 0.000155 | 0.000161 | 0.00017 | 0.000246 | 0.000274 | 0.000285 | 0.000283 | 0.000286 | 0.000293 | 0.000295 | 0.000299 | 0.000336 | kobs (Epac2^Δ280,K450E; 0.2 μM compound): 8.25e-05 s⁻¹; kobs (Epac2^Δ280,K450E; 30 μM compound): 0.000329 s⁻¹; kobs (Epac2^Δ280,K450E; 40 μM compound): 0.000336 s⁻¹; kobs (Epac2^Δ280,K450E; 50 μM compound): 0.000327 s⁻¹; kobs (Epac2^Δ280,K450E; 60 μM compound): 0.000303 s⁻¹; kobs (Epac2^Δ280,K450E; 70 μM compound): 0.000306 s⁻¹; kobs (Epac2^Δ280,K450E; 80 μM compound): 0.000304 s⁻¹; kobs (Epac2^Δ280,K450E; 100 μM compound): 0.000294 s⁻¹; Rel. kmax (Epac2^fl): 1.0^b
3 | Nc1ncnc2c1nc(SCc1ccccc1)n2[C@@H]1O[C@@H]2CO[P@](O)(=S)O[C@H]2[C@H]1O [S-220, Sp-8-BnT-cAMPS] | 7.9e-05 | 0.000201 | 0.000291 | 0.000329 s⁻¹ | 0.000717 | 0.000786 | 0.000805 | 0.000891 | 0.000938 | 0.000942 | 0.000907 | 0.00111 | 0.00113 | 0.00112 | 0.00108 | 0.00112 | 0.00112 | 0.00112 | 0.00104 |  | kobs (Epac2^Δ280,K450E; 0.001 μM compound): 3.4e-05 s⁻¹; kobs (Epac2^Δ280,K450E; 0.003 μM compound): 4.1e-05 s⁻¹; kobs (Epac2^Δ280,K450E; 0.005 μM compound): 4.7e-05 s⁻¹; kobs (Epac2^Δ280,K450E; 0.008 μM compound): 5.6e-05 s⁻¹; kobs (Epac2^Δ280,K450E; 0.03 μM compound): 0.000149 s⁻¹; kobs (Epac2^Δ280,K450E; 0.04 μM compound): 0.000174 s⁻¹; kobs (Epac2^Δ280,K450E; 0.06 μM compound): 0.000239 s⁻¹; kobs (Epac2^Δ280,K450E; 0.07 μM compound): 0.000269 s⁻¹; kobs (Epac2^Δ280,K450E; 0.2 μM compound): 0.000621 s⁻¹; glucose-induced insulin secretion (primary human islets): potentiates glucose-induced insulin secretion with similar efficiency
